Results published in US11364214B2, “Compositions and methods for treating eczema” (Dermala Inc., priority 2016, dated 2022).
Values after ≈ are worked out from the molar mass of the structure shown.

Columns and labels:
S. aureus = conditions: Shu et al. 2013; Wang et al. 2014; cited from earlier work
S. aureus (ATCC 29213) [1] = experiment: Time-kill assay (bactericidal activity); type: cell-based
Method: This inoculum preparation was used for all experiments. Time-kill assay: A time-kill assay was performed to monitor the bactericidal activity of propionic acid (PA). […] Assays were performed in 100 μl volumes in 96-well plates and incubated at 37° C. in a sealed bag to prevent evaporation. […] Bacterial growth was determined by counting CFUs. […] The assay was setup and evaluated as described above.

S. aureus (ATCC 29213) [2] = experiment: Minimal inhibitory concentration (MIC) assay, microbroth dilution (CLSI M100-S22); type: cell-based; conditions: Staphylococcus aureus, ATCC29213; no esterase added; 10% DMSO; 16 hours at 37° C.; first well showing ≥90% reduction in growth; read-out: MIC against S. aureus

SMILES: CCC(=O)O [PA, propionic acid]
- growth of S. aureus (literature) (S. aureus): inhibit growth of S. aureus
- time after which bactericidal against S. aureus (S. aureus (ATCC 29213) [1]; 4× the MIC (MIC 15 mM), sampled at 0, 1, 7, 24 hours, FIG. 2): 7 h
- time after which S. aureus is completely killed (S. aureus (ATCC 29213) [1]; 4× the determined MIC, 0.2 mg/ml porcine liver esterase, sampled at 0, 1, 5, 24 hours, FIG. 4): 5 h
- MIC (S. aureus (ATCC 29213) [2]): 15 mM (≈ 1110 µg/mL)
